{"source": "paper PMC10272112", "about": "(Nature Communications, 2023)", "test_in_all_cases": "Chemoproteomic competition pulldown assay with iC", "assay_type_in_all_cases": "binding", "key": {"HDAC4": {"target": "T1, HDAC4 (Homo sapiens, UniProt P56524)", "T1 construct": "endogenous in cells; host or cells: cell lysate", "T1 sequence (P56524 whole entry)": "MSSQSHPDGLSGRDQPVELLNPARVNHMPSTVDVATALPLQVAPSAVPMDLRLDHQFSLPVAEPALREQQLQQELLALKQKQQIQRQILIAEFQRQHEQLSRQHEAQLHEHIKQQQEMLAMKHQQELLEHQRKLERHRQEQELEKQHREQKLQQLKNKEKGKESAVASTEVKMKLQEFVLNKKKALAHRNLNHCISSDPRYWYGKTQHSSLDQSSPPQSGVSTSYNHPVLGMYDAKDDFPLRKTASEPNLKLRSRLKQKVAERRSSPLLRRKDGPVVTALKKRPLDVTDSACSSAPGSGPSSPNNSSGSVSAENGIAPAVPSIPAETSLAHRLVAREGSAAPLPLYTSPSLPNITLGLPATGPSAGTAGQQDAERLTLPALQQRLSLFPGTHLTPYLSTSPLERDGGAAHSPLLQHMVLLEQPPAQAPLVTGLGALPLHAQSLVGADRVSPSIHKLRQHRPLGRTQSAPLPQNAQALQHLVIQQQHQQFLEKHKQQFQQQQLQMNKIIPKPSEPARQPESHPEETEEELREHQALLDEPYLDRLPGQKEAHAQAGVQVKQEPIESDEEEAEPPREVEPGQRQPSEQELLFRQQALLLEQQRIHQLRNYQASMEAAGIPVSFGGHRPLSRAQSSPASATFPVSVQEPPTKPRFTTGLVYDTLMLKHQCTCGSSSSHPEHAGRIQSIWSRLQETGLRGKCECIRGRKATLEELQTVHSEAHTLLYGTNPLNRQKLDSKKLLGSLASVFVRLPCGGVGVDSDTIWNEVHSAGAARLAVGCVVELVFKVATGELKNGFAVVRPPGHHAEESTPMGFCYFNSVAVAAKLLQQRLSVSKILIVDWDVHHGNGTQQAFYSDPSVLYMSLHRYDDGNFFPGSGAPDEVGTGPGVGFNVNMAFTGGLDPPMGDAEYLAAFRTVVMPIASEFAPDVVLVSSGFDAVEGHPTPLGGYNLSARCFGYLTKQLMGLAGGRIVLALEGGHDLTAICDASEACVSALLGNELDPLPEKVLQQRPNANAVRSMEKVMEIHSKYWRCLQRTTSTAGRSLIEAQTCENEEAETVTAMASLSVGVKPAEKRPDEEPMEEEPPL", "conditions": "for relative binding vs DMSO: iC", "description": "(§1) To identify proteins directly bound by lipoic acid, we employed a chemoproteomic competition assay. Briefly, (R/S)-LA was immobilized on sepharose beads via an amidation reaction to form an affinity matrix (abbreviated as iL; Fig. 1a). This affinity matrix can be incubated with cell lysate to pull down potential LA or LM target proteins and identify these targets via bottom-up proteomics. In a competition assay, free LA or LM were incubated with lysate at different concentrations before pulling down and quantifying target proteins. […] (Fig. 1b, see “Methods” for details). […] The lysate buffer used in this assay contains 1 mM DTT to mimic the intracellular reductive milieu and to reduce lipoic acid and LM. […] Additional competition assays performed in lung adenocarcinoma cell A549 lysate also identified HDAC1, HDAC2, and HDAC6 as targets (Supplementary Fig. 1b). Amongst the three cell lines tested, HDACs were the only confidently identified targets across the 1500–3000 proteins quantified in these assays. […] We validated the results by analogous pulldown competition assays using two other affinity matrices prepared via the immobilization of either the HDAC inhibitor Quisinostat (iQ) and an analog of the class IIa HDAC inhibitor Bürli’s 31[14] (iC)[12]. We have previously shown that these affinity matrices specifically bind to the active sites of HDACs and have used them for HDACi selectivity profiling. Indeed, binding of (R/S)-LA and (R/S)-LM to HDAC1, HDAC2, HDAC3, HDAC6, and, to a lesser extent, HDAC8 was confirmed in these assays (Supplementary Fig. 1c, d). No binding to class IIa HDACs or the recently discovered common HDAC inhibitor off-target MBLAC2 was observed (Supplementary Fig. 1e)[12]. […] This observation might reflect electrostatic repulsion between the HDAC10 active site gate-keeper glutamic acid residues[15],[16] and the terminal carboxylic acid of LA.\n(§2) To assess the degree of protein depletion from lysates by the affinity matrix, a second pulldown (PDPD) with fresh beads was performed using the unbound protein fraction from the vehicle control flow through. The beads were washed (1 × 1 mL of lysis buffer without inhibitors and only 0.4% Igepal, 2 × 2 mL of lysis buffer without inhibitors and only 0.2% Igepal), and captured proteins were denatured with 8 M urea buffer, alkylated with 55 mM chloroacetamide and digested with Trypsin according to standard procedures. The resulting peptides were desalted on a C18 filter plate (Sep-Pak® tC18 µElution Plate, Waters), vacuum dried, and stored at −20 °C until LC–MSMS measurement.\n(§3) For the competition assays, relative binding was calculated based on the protein intensity ratio to the DMSO control for every single inhibitor concentration. EC50 values were derived from a four-parameter log-logistic regression with variable slope (constrain: bottom > 0). The obtained EC50 values were multiplied with a protein-dependent correction factor (cf), resulting in the apparent Kd value (Kd^app). The correction factor is determined by calculating the ratio of the protein intensity of two consecutive pulldowns of the vehicle control sample[13]. Targets of the inhibitors were annotated manually according to published procedures[12],[46],[47]. […] Additionally, the number of unique peptides and MSMS counts per condition were taken into account. Positive target binding across several independent experiments performed with different cell lysates further substantiated our confidence for a true positive drug-target binding event."}, "MBLAC2": {"target": "T2, MBLAC2 (Homo sapiens, UniProt Q68D91)", "T2 construct": "endogenous in cells; host or cells: cell lysate", "T2 sequence (Q68D91 1-279)": "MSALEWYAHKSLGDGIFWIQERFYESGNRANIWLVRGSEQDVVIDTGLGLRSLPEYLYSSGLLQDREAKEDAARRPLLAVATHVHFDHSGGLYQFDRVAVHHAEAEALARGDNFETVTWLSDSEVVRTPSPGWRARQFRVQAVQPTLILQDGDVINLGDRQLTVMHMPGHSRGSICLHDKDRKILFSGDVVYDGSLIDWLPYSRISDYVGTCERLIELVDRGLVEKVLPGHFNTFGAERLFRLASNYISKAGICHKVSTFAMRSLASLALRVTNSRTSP", "conditions": "for relative binding vs DMSO: iC", "description": "as §1, §2, §3"}, "HDAC7": {"target": "T3, HDAC7 (Homo sapiens, UniProt Q8WUI4)", "T3 construct": "endogenous in cells; host or cells: cell lysate", "T3 sequence (Q8WUI4 1-952)": "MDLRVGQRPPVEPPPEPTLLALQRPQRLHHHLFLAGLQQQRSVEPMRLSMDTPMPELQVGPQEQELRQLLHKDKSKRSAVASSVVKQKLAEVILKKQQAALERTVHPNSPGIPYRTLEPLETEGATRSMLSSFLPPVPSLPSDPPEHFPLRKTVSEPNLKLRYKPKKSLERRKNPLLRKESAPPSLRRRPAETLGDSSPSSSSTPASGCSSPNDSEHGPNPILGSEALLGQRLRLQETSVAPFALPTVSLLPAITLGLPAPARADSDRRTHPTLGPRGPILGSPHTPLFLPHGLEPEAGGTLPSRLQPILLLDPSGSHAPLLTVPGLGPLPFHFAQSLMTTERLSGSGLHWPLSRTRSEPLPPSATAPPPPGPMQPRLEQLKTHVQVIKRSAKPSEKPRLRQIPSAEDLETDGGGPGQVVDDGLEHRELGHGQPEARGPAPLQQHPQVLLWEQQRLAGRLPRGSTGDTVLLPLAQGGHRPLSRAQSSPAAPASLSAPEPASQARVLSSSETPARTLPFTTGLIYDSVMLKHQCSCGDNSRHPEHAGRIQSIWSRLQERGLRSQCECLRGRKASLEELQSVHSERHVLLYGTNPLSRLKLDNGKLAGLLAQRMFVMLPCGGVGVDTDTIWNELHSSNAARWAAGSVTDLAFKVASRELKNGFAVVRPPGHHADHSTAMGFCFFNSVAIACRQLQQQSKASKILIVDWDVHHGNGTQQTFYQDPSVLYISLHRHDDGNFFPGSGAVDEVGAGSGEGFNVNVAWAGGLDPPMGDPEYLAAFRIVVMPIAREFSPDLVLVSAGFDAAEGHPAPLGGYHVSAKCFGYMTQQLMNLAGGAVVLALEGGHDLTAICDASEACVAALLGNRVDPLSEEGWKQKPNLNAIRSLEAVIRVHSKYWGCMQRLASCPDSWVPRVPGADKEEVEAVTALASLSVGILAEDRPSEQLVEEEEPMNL", "description": "as §1, §2, §3"}}}
{"molecule": "O=C(O)CCCCC1CCSS1", "note": "(racemic) [(R/S)-LA, (R/S)-lipoic acid]", "values": [{"measurement": "binding to class IIa HDACs", "setting": "HDAC4; affinity matrix iC", "value": "No binding"}, {"measurement": "relative binding vs DMSO", "setting": "HDAC4; log10 M -3.52288", "value": 1.609}, {"measurement": "relative binding vs DMSO", "setting": "HDAC4; log10 M -4", "value": 1.464}, {"measurement": "relative binding vs DMSO", "setting": "HDAC4; log10 M -4.52288", "value": 1.531}, {"measurement": "relative binding vs DMSO", "setting": "HDAC4; log10 M -5", "value": 1.518}, {"measurement": "relative binding vs DMSO", "setting": "HDAC4; log10 M -5.52288", "value": 1.32}, {"measurement": "relative binding vs DMSO", "setting": "HDAC4; log10 M -6", "value": 1.575}, {"measurement": "relative binding vs DMSO", "setting": "HDAC4; log10 M -6.52288", "value": 1.649}, {"measurement": "relative binding vs DMSO", "setting": "HDAC4; log10 M -7", "value": 1.276}, {"measurement": "binding to MBLAC2", "setting": "MBLAC2; affinity matrix iC", "value": "No binding"}, {"measurement": "relative binding vs DMSO", "setting": "MBLAC2; log10 M -3.52288", "value": 0.9784}, {"measurement": "relative binding vs DMSO", "setting": "MBLAC2; log10 M -4", "value": 1.054}, {"measurement": "relative binding vs DMSO", "setting": "MBLAC2; log10 M -4.52288", "value": 1.366}, {"measurement": "relative binding vs DMSO", "setting": "MBLAC2; log10 M -5", "value": 1.348}, {"measurement": "relative binding vs DMSO", "setting": "MBLAC2; log10 M -5.52288", "value": 1.098}, {"measurement": "relative binding vs DMSO", "setting": "MBLAC2; log10 M -6", "value": 1.484}, {"measurement": "relative binding vs DMSO", "setting": "MBLAC2; log10 M -6.52288", "value": 0.5203}, {"measurement": "relative binding vs DMSO", "setting": "MBLAC2; log10 M -7", "value": 0.9131}, {"measurement": "relative binding vs DMSO", "setting": "HDAC7; log10 M -3.52288", "value": 1.458}, {"measurement": "relative binding vs DMSO", "setting": "HDAC7; log10 M -4", "value": 1.397}, {"measurement": "relative binding vs DMSO", "setting": "HDAC7; log10 M -4.52288", "value": 1.757}, {"measurement": "relative binding vs DMSO", "setting": "HDAC7; log10 M -5", "value": 1.642}, {"measurement": "relative binding vs DMSO", "setting": "HDAC7; log10 M -5.52288", "value": 1.564}, {"measurement": "relative binding vs DMSO", "setting": "HDAC7; log10 M -6", "value": 1.746}, {"measurement": "relative binding vs DMSO", "setting": "HDAC7; log10 M -6.52288", "value": 1.164}, {"measurement": "relative binding vs DMSO", "setting": "HDAC7; log10 M -7", "value": 1.455}]}
